# According to patent US7834013B2, “Aminophenylcyclopropyl carboxylic acids and derivatives as agonists to GPR40” (GlaxoSmithKline LLC, priority 2003, dated 2010):
# Structures can show the parent of a compound that is named as a salt.
# Molecular target: T1, GPR40 (Homo sapiens, UniProt O14842)
# T1 construct: expressed in transfected cells
# Assay: GPR40 SAR Primary Assay (Elk-1/Gal4-luc+ reporter, luciferase activity)
# Assay type: cell-based
# Conditions: stable GPR40 Elk-1/Gal4-luc+ CHO cell line, 5 hours incubation
# Method: An existing stable GPR40 Elk-1/Gal4-luc^+ CHO cell line generated by electroporation and functional cloning was used. Cells were maintained in a humidified incubator at 37° C./5% CO2 in complete media containing DMEM/F12 (Gibco, #11039-021), 5% FBS (Gibco, #16140-071) and 1% Glutamine (Gibco, #25030-081). Cell maintenance passages were made at 1:40 dilution every 3-4 days. Forty eight hours prior to assay, 15e6 cells were added to 200 ml of complete media then seeded into a 1200 cm^2-cell factory and returned to a humidified incubator at 37° C./5% CO2. 20 hours prior to assay, the growth media was removed and replaced with 200 ml of serum-free DMEM/F12 to quiesce background activity. At the time of assay, cells were harvested using non-enzymatic cell dissociation solution (Sigma, #C-5914), washed and counted. The 20 hour starve media was collected and used as condition media for cell assay plating. Cells were plated at a concentration of 10,000 cells/well in a total well volume of […] in black 96-well clear bottom polystyrene plates (CoStar, #3904). Test compounds were prepared as serial dilutions in 100% DMSO, then 1 ul was delivered to each well resulting in a final concentration of 1% DMSO. The plates were then returned to a humidified incubator at 37° C./5% CO2 for 5 hours. Following the incubation, the medium was replaced with 50 ul of a 1:1 mixture of SteadyGlo™ (Promega, #E2550) and dPBS containing 1 mM CaCl2 and 1 mM MgCl2. Plates were then sealed and subjected to dark adaptation at room temperature for 10 minutes. Luciferase activity was measured on a Packard TopCount™ microplate scintillation counter using 2 seconds per well count time.
# Data analysis was performed using standard methods.
# The Normalization Equation used was 100*(Unknown compound response−Background response)/(Agonist Max response−Background response).
# The Curve Fit Function used was y=((Vmax*x^n)/(K^n+x^n))+Y2.
# A percent max response and pEC50 were recorded for each compound. Although specific pEC50 values are given, these values should be considered exemplary. Those skilled in the art will appreciate the variability in performing and recording the biological activity assays that are herein described. The compounds of the present invention provide a pEC50 of at least 5.0.
# T1 sequence (O14842 whole entry): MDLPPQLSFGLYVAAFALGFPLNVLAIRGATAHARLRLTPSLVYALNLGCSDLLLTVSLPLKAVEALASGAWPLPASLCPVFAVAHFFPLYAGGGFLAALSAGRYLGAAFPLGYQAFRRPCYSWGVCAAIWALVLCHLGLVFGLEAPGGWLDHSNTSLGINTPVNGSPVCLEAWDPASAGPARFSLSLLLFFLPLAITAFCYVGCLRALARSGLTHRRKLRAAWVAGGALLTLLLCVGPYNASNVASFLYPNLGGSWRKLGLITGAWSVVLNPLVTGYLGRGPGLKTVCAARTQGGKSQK
row,Structure (SMILES),EC50 [µM]
1,"Cc1nc(Oc2ccc(F)c(F)c2)sc1CNc1ccc([C@@H]2C[C@H]2C(=O)O)cc1 (racemic) [Example 17, Racemic-(trans)-2-{4-[({2-[(3,4-difluorophenyl)oxy]-4-methyl-1,3-thiazol-5-yl}methyl)amino]phenyl}cyclopropanecarboxylic Acid]",0.251
2,"O=C(O)[C@@H]1C[C@H]1c1ccc(NCc2ccc(OCc3ccccc3)cc2)cc1 (racemic) [Example 16, Racemic-(trans)-2-{4-[({4-[(phenylmethyl)oxy]phenyl}methyl)amino]phenyl}cyclopropanecarboxylic Acid trifluoroacetate]",0.0631
3,"O=C(O)[C@@H]1C[C@H]1c1ccc(NCc2ccc(-c3ccccn3)cc2)cc1 (racemic) [Example 3, Racemic-(trans)-2-[4-({[4-(2-pyridinyl)phenyl]methyl}amino)phenyl]cyclopropanecarboxylic Acid]",1.58

# The next compounds have a lower EC50 than those just listed; values first:
row,EC50 [µM],Structure (SMILES)
1,0.0316,"O=C(NCc1ccc(C(F)(F)F)cc1)[C@@H]1C[C@H]1c1ccc(NCc2cccc(Oc3ccccc3)c2)cc1 (racemic) [Example 49, Racemic-(trans)-2-{4-[(3-phenoxybenzyl)amino]phenyl}-N-[4-(trifluoromethyl)benzyl]cyclopropanecarboxamide]"
2,0.00631,"Cc1nc(-c2ccc(C(F)(F)F)cc2)sc1CNc1ccc([C@@H]2C[C@H]2C(=O)NO)cc1 (single isomer, unassigned) [Example 41, Enantiomerically Enriched (trans)-N-hydroxy-2-{4-[({4-methyl-2-[4-(trifluoromethyl)phenyl]-1,3-thiazol-5-yl}methyl)amino]phenyl}cyclopropanecarboxamide]"
